# Measured values reported in patent publication US8765749B2, “1,6-disubstituted indole compounds as protein kinase inhibitors” (Korea Institute of Science and Technology, priority 2009, dated 2014).
# How the values were obtained:
# [1] = test system: A375P cells; test: Inhibition activity against proliferation of A375P melanoma cells (MTT assay); details: Homo sapiens, read-out: Inhibition activity against proliferation of A375P cells (GI50, μM)
# [2] = test system: SK-MEL28 cells; test: Inhibition activity against proliferation of SK-MEL28 melanoma cells (MTT assay); details: Homo sapiens, SK-MEL-28, read-out: Inhibition activity against proliferation of SK-MEL28 cells (GI50, μM)
Structure (SMILES),GI50 [1],GI50 [2]
"CC(C)(C#N)c1cccc(C(=O)Nc2cccc(-c3ccc4ccn(-c5cc(NC(=O)C6CC6)ncn5)c4c3)c2)c1 [Example 33, 3-(2-cyanopropan-2-yl)-N-(3-(1-(6-(cyclopropanecarboxamido)pyrimidin-4-yl)-1H-indol-6-yl)phenyl)benzamide]",< 10 µM,
"O=C(Nc1cccc(-c2ccc3ccn(-c4ncnc5[nH]ccc45)c3c2)c1)c1ccc(Cl)c(C(F)(F)F)c1 [Example 37, N-(3-(1-(7H-pyrrolo[2,3-d]pyrimidin-4-yl)-1H-indol-6-yl)phenyl)-4-chloro-3-(trifluoromethyl)benzamide]",< 10 µM,
"Nc1cc(-n2ccc3ccc(-c4cccc(NC(=O)Nc5ccc(C(F)(F)F)c(Cl)c5)c4)cc32)ncn1 [Example 2, 1-(3-(1-(6-aminopyrimidin-4-yl)-1H-indol-6-yl)phenyl)-3-(3-chloro-4-(trifluoromethyl)phenyl)urea]",< 10 µM,< 10 µM
"COc1ccccc1NC(=O)Nc1cccc(-c2ccc3ccn(-c4ncnc5[nH]ccc45)c3c2)c1 [Example 36, 1-(3-(1-(7H-pyrrolo[2,3-d]pyrimidin-4-yl)-1H-indol-6-yl)phenyl)-3-(2-methoxyphenyl)urea]",< 10 µM,< 10 µM
"Nc1cc(-n2ccc3ccc(-c4cccc(NC(=O)c5cc(N6CCOCC6)cc(C(F)(F)F)c5)c4)cc32)ncn1 [Example 7, N-(3-(1-(6-aminopyrimidin-4-yl)-1H-indol-6-yl)phenyl)-3-morpholino-5-(trifluoromethyl)benzamide]",< 10 µM,< 10 µM
"Nc1cc(-n2ccc3ccc(-c4cccc(NC(=O)c5cnn(-c6ccccc6)c5C(F)(F)F)c4)cc32)ncn1 [Example 17, N-(3-(1-(6-aminopyrimidin-4-yl)-1H-indol-6-yl)phenyl)-1-phenyl-5-(trifluoromethyl)-1H-pyrazol-4-carboxamide]",< 10 µM,
"Cc1ccc(S(=O)(=O)Nc2cccc(-c3ccc4ccn(-c5cc(N)ncn5)c4c3)c2)cc1 [Example 20, N-(3-(1-(6-aminopyrimidin-4-yl)-1H-indol-6-yl)phenyl)-4-methylbenzenesulfonamide]",< 10 µM,
"Nc1cc(-n2ccc3ccc(-c4cccc(NC(=O)Nc5ccc(Cl)c(Cl)c5)c4)cc32)ncn1 [Example 4, 1-(3-(1-(6-aminopyrimidin-4-yl)-1H-indol-6-yl)phenyl)-3-(3,4-dichlorophenyl)urea]",< 10 µM,
"O=C(Nc1cccc(-c2ccc3ccn(-c4cc(NC(=O)C5CC5)ncn4)c3c2)c1)c1ccc(Cl)c(C(F)(F)F)c1 [Example 30, 4-chloro-N-(3-(1-(6-(cyclopropanecarboxamido)pyrimidin-4-yl)-1H-indol-6-yl)phenyl)-3-(trifluoromethyl)benzamide]",< 10 µM,
"Cc1cn(-c2cc(C(=O)Nc3cccc(-c4ccc5ccn(-c6cc(N)ncn6)c5c4)c3)cc(C(F)(F)F)c2)cn1 [Example 8, N-(3-(1-(6-aminopyrimidin-4-yl)-1H-indol-6-yl)phenyl)-3-(4-methyl-1H-imidazol-1-yl)-5-(trifluoromethyl)benzamide]",< 10 µM,< 10 µM
"Cc1cn(-c2cc(C(=O)Nc3cccc(-c4ccc5ccn(-c6cc(NC(=O)C7CC7)ncn6)c5c4)c3)cc(C(F)(F)F)c2)cn1 [Example 32, N-(3-(1-(6-(cyclopropanecarboxamido)pyrimidin-4-yl)-1H-indol-6-yl)phenyl)-3-(4-methyl-1H-imidazol-1-yl)-5-(trifluoromethyl)benzamide]",< 10 µM,
"O=C(Nc1cccc(-c2ccc3ccn(-c4cc(NC(=O)C5CC5)ncn4)c3c2)c1)NC1CCCCC1 [Example 29, N-(6-(6-(3-(3-cyclohexylureido)phenyl)-1H-indol-1-yl)pyrimidin-4-yl)cyclopropanecarboxamide]",< 10 µM,
"O=C(Nc1cccc(-c2ccc3ccn(-c4cc(NC(=O)C5CC5)ncn4)c3c2)c1)Nc1ccccc1F [Example 27, N-(6-(6-(3-(3-(2-fluorophenyl)ureido)phenyl)-1H-indol-1-yl)pyrimidin-4-yl)cyclopropanecarboxamide]",< 10 µM,
"Nc1cc(-n2ccc3ccc(-c4cccc(NC(=O)c5csc(-c6ccncc6)n5)c4)cc32)ncn1 [Example 16, N-(3-(1-(6-aminopyrimidin-4-yl)-1H-indol-6-yl)phenyl)-2-(pyridin-4-yl)thiazol-4-carboxamide]",< 10 µM,
"Nc1cc(-n2ccc3ccc(-c4cccc(NC(=O)NC5CCCCC5)c4)cc32)ncn1 [Example 5, 1-(3-(1-(6-aminopyrimidin-4-yl)-1H-indol-6-yl)phenyl)-3-cyclohexylurea]",< 10 µM,< 10 µM
"COc1ccccc1NC(=O)Nc1cccc(-c2ccc3ccn(-c4ccnc(N)n4)c3c2)c1 [Example 25, 1-(3-(1-(2-aminopyrimidin-4-yl)-1H-indol-6-yl)phenyl)-3-(2-methoxyphenyl)urea]",< 10 µM,< 10 µM
"Nc1cc(-n2ccc3ccc(-c4cccc(NC(=O)c5ccc(Cl)c(C(F)(F)F)c5)c4)cc32)ncn1 [Example 6, N-(3-(1-(6-aminopyrimidin-4-yl)-1H-indol-6-yl)phenyl)-4-chloro-3-(trifluoromethyl)benzamide]",< 10 µM,< 10 µM
"O=C(Nc1cccc(-c2ccc3ccn(-c4cc(NC(=O)C5CC5)ncn4)c3c2)c1)c1cc(N2CCOCC2)cc(C(F)(F)F)c1 [Example 31, N-(3-(1-(6-(cyclopropanecarboxamido)pyrimidin-4-yl)-1H-indol-6-yl)phenyl)-3-morpholino-5-(trifluoromethyl)benzamide]",< 10 µM,
"COc1ccc(-c2ccc(C(=O)Nc3cccc(-c4ccc5ccn(-c6cc(N)ncn6)c5c4)c3)o2)cc1 [Example 10, N-(3-(1-(6-aminopyrimidin-4-yl)-1H-indol-6-yl)phenyl)-5-(4-methoxyphenyl)furan-2-carboxamide]",< 10 µM,
"COc1ccccc1NC(=O)Nc1cccc(-c2ccc3ccn(-c4cc(NCCN5CCOCC5)ncn4)c3c2)c1 [Example 24, 1-(2-methoxyphenyl)-3-(3-(1-(6-(2-morpholinoethylamino)pyrimidin-4-yl)-1H-indol-6-yl)phenyl)urea]",< 10 µM,< 10 µM
"Nc1cc(-n2ccc3ccc(-c4cccc(NC(=O)Nc5ccccc5F)c4)cc32)ncn1 [Example 3, 1-(3-(1-(6-aminopyrimidin-4-yl)-1H-indol-6-yl)phenyl)-3-(2-fluorophenyl)urea]",< 10 µM,
"COc1ccccc1NC(=O)Nc1cccc(-c2ccc3ccn(-c4cc(NC5CC5)ncn4)c3c2)c1 [Example 23, 1-(3-(1-(6-(cyclopropylamino)pyrimidin-4-yl)-1H-indol-6-yl)phenyl)-3-(2-methoxyphenyl)urea]",< 10 µM,< 10 µM

# Next, values leading:
GI50 [1],GI50 [2],Structure (SMILES)
< 10 µM,,"Nc1cc(-n2ccc3ccc(-c4cccc(NC(=O)c5cscn5)c4)cc32)ncn1 [Example 15, N-(3-(1-(6-aminopyrimidin-4-yl)-1H-indol-6-yl)phenyl)thiazol-4-carboxamide]"
< 10 µM,,"Nc1cc(-n2ccc3ccc(-c4cccc(NC(=O)c5cc(-c6ccc(Cl)cc6)on5)c4)cc32)ncn1 [Example 14, N-(3-(1-(6-aminopyrimidin-4-yl)-1H-indol-6-yl)phenyl)-5-(4-chlorophenyl)isoxazol-3-carboxamide]"
< 10 µM,,"O=C(Nc1cccc(-c2ccc3ccn(-c4cc(NC(=O)C5CC5)ncn4)c3c2)c1)Nc1ccc(Cl)c(Cl)c1 [Example 28, N-(6-(6-(3-(3-(3,4-dichlorophenyl)ureido)phenyl)-1H-indol-1-yl)pyrimidin-4-yl)cyclopropanecarboxamide]"
< 10 µM,,Nc1cc(-n2ccc3ccc(-c4cccc(NC(=O)c5ccc(-c6cc(C(F)(F)F)ccc6Cl)o5)c4)cc32)ncn1 [Example 11]
< 10 µM,,"CN1CCC(Oc2ccc(C(=O)Nc3cccc(-c4ccc5ccn(-c6cc(N)ncn6)c5c4)c3)cc2C(F)(F)F)CC1 [Example 19, N-(3-(1-(6-aminopyrimidin-4-yl)-1H-indol-6-yl)phenyl)-4-(1-methylpiperidin-4-yloxy)-3-(trifluoromethyl)benzamide]"
< 10 µM,< 10 µM,"CC(C)(C#N)c1cccc(C(=O)Nc2cccc(-c3ccc4ccn(-c5cc(N)ncn5)c4c3)c2)c1 [Example 9, N-(3-(1-(6-aminopyrimidin-4-yl)-1H-indol-6-yl)phenyl)-3-(2-cyanopropan-2-yl)benzamide]"
< 10 µM,,"Cc1cc(C(=O)Nc2cccc(-c3ccc4ccn(-c5cc(N)ncn5)c4c3)c2)c(C)o1 [Example 12, N-(3-(1-(6-aminopyrimidin-4-yl)-1H-indol-6-yl)phenyl)-2,5-dimethylfuran-3-carboxamide]"
< 10 µM,,"COc1ccccc1NC(=O)Nc1ccc(C)c(-c2ccc3ccn(-c4cc(NC(=O)C5CC5)ncn4)c3c2)c1 [Example 35, N-(6-(6-(5-(3-(2-methoxyphenyl)ureido)-2-methylphenyl)-1H-indol-1-yl)pyrimidin-4-yl)cyclopropanecarboxamide]"
< 10 µM,,"Nc1cc(-n2ccc3ccc(-c4cccc(NC(=O)c5ccc(Br)s5)c4)cc32)ncn1 [Example 18, N-(3-(1-(6-aminopyrimidin-4-yl)-1H-indol-6-yl)phenyl)-5-bromothiophen-2-carboxamide]"
< 10 µM,< 10 µM,"Cc1cc(C(=O)Nc2cccc(-c3ccc4ccn(-c5cc(N)ncn5)c4c3)c2)no1 [Example 13, N-(3-(1-(6-aminopyrimidin-4-yl)-1H-indol-6-yl)phenyl)-5-methylisoxazol-3-carboxamide]"
